# Reference: patent US20250145665A1, “MACROCYCLIC PEPTIDES USEFUL AS MODULATORS OF TNF ALPHA” (Bristol-Myers Squibb Company, priority 2023, published 2025)
# Like-named read-outs stand apart in the source and are kept apart here. Starred links: 1 amine or outer side, 2 acyl side, 3 side chain; linkers in the order of their positions; H or OH if unused. Positions of bridges follow the written chain, without caps; N, C: chain ends. Non-standard residues stand in square brackets, D forms with d. Residues, ends and D or L forms follow the SMILES beside them. *: point of attachment. X65 = O=C(O)Cc1cccc(NC(=O)c2ccc(-c3ccc(C[C@H](N[*:1])C(=O)[*:2])cc3)cc2)c1; X21 = N=C(NCCC[C@@H](N[*:1])C(=O)[*:2])NC[C@H](O)[C@@H](O)[C@@H](O)CO; Bip(4'-NH) = O=C([C@H](Cc1ccc(-c2ccc(N[*:3])cc2)cc1)N[*:1])[*:2]; dArg(ω-(3-HO-benzyl)) = N=C(NCCC[C@@H](N)C(=O)O)NCc1cccc(O)c1; Indazole3carbonyl(1-CH2COOH) = O=C(O)Cn1nc(C(=O)*)c2ccccc21; Bip(4'-COOH) = N[C@@H](Cc1ccc(-c2ccc(C(=O)O)cc2)cc1)C(=O)O; Bip(4'-NHAc) = CC(=O)Nc1ccc(-c2ccc(C[C@H](N)C(=O)O)cc2)cc1; Indole3carbonyl(1-CH2COOH) = O=C(O)Cn1cc(C(=O)*)c2ccccc21; X66 = N=C(NCCC[C@@H](N[*:1])C(=O)[*:2])NCc1ccc(F)c(F)c1; dArg(ω-Bn) = N=C(NCCC[C@@H](N)C(=O)O)NCc1ccccc1; Ala(morpholin-4-yl) = N[C@@H](CN1CCOCC1)C(=O)O; Asp(3,3-Me2) = CC(C)(C(=O)O)[C@H](N)C(=O)O; Bip = N[C@@H](Cc1ccc(-c2ccccc2)cc1)C(=O)O; Bta = N[C@@H](Cc1csc2ccccc12)C(=O)O; Val(3-OH) = CC(C)(O)[C@H](N)C(=O)O; 2Pal = N[C@@H](Cc1ccccn1)C(=O)O; 3Pal = N[C@@H](Cc1cccnc1)C(=O)O; Tic = O=C(O)[C@@H]1Cc2ccccc2CN1; 2Thi = N[C@@H](Cc1cccs1)C(=O)O; Cha = N[C@@H](CC1CCCCC1)C(=O)O; Tle = CC(C)(C)[C@H](N)C(=O)O; Aze = O=C(O)[C@@H]1CCN1; Sar = CNCC(=O)O
# Target: TNFα (Homo sapiens, UniProt P01375)
# Test: TNF-Induced HEK-Blue Assay
# Assay type: cell-based
# [1] = HEK-Blue-CD40L cells, NF-kB-driven secreted alkaline phosphatase reporter, TNFα 0.5 ng/ml, 18 h, read-out: TNF induced HEK-Blue assay IC50 value
# TNFα, sequence (P01375 77-233 limits assumed): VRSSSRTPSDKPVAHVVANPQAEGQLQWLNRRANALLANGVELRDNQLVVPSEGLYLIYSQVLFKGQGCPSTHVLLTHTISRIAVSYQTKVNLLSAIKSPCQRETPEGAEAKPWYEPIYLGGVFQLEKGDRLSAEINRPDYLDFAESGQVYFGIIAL
IC50 [1],SMILES,IC50
50 to 200 nM,CC(C)C[C@@H]1NC(=O)[C@H](Cc2ccc(O)cc2)NC(=O)[C@H](C(C)C)NC(=O)[C@@H]2CCCN2C(=O)[C@H](Cc2ccc(O)cc2)NC(=O)[C@H](CCCNC(=N)N)NC(=O)[C@H](CC(=O)O)NC(=O)[C@H](Cc2ccc(O)cc2)NC(=O)CN(C)C(=O)[C@H](Cc2ccc(-c3ccccc3)cc2)NC(=O)[C@H](Cc2ccc(-c3ccccc3)cc2)NC(=O)[C@H](C(C)(C)O)NC(=O)CSC[C@@H](C(=O)NCC(N)=O)NC1=O [Example 110] ({CH2CO}-[Val(3-OH)][Bip][Bip][Sar]YDRYPVYLCG-NH2; thioether N-13),–
< 50 nM,CC(=O)Nc1ccc(-c2ccc(C[C@@H]3NC(=O)[C@H](Cc4ccc(-c5ccccc5)cc4)NC(=O)[C@H](CN4CCOCC4)NC(=O)CSC[C@@H](C(=O)NCC(N)=O)NC(=O)[C@H](CC(C)C)NC(=O)[C@H](Cc4ccc(O)cc4)NC(=O)[C@H](C(C)C)NC(=O)[C@@H]4CCCN4C(=O)[C@H](C(C)C)NC(=O)[C@H](CCCNC(=N)N)NC(=O)[C@H](CC(=O)O)NC(=O)[C@@H]4CCCN4C(=O)CN(C)C3=O)cc2)cc1 [Example 196] ({CH2CO}-[Ala(morpholin-4-yl)][Bip][Bip(4'-NHAc)][Sar]PDRVPVYLCG-NH2; thioether N-13),–
200 to 2000 nM,CC(C)C[C@@H]1NC(=O)[C@H](CCCNC(=N)N)NC(=O)[C@H](C(C)C)NC(=O)[C@@H]2CCN2C(=O)[C@H](C(C)C)NC(=O)[C@H](CCCNC(=N)N)NC(=O)[C@H](CC(=O)O)NC(=O)[C@@H]2CCCN2C(=O)CN(C)C(=O)[C@H](Cc2ccc(-c3ccccc3)cc2)NC(=O)[C@H](Cc2ccc(-c3ccccc3)cc2)NC(=O)[C@H](Cc2ccccc2)NC(=O)CSC[C@@H](C(=O)NCC(N)=O)NC1=O [Example 42] ({CH2CO}-F[Bip][Bip][Sar]PDRV[Aze]VRLCG-NH2; thioether N-13),–
< 50 nM,CC(C)C[C@@H]1NC(=O)[C@H](Cc2ccc(O)cc2)NC(=O)[C@H](C(C)C)NC(=O)[C@@H]2Cc3ccccc3CN2C(=O)[C@H](C(C)C)NC(=O)[C@@H](CCCNC(=N)N)NC(=O)[C@H](CC(=O)O)NC(=O)[C@H](Cc2ccc(O)cc2)NC(=O)CN(C)C(=O)[C@H](Cc2ccc(-c3ccccc3)cc2)NC(=O)[C@H](Cc2ccc(-c3ccc(C(=O)O)cc3)cc2)NC(=O)[C@H](CN2CCOCC2)NC(=O)CSC[C@@H](C(=O)NCC(N)=O)NC1=O [Example 148] ({CH2CO}-[Ala(morpholin-4-yl)][Bip(4'-COOH)][Bip][Sar]YD[dR]V[Tic]VYLCG-NH2; thioether N-13),–
200 to 2000 nM,CC(C)C[C@@H]1NC(=O)[C@H](CCCNC(=N)N)NC(=O)[C@H](C(C)C)NC(=O)[C@@H]2CCCN2C(=O)[C@H](C(C)C)NC(=O)[C@H](CCCNC(=N)N)NC(=O)[C@H](CC(=O)O)NC(=O)[C@@H]2CCCN2C(=O)CN(C)C(=O)[C@H](Cc2ccc(-c3ccccc3)cc2)NC(=O)[C@H](Cc2ccc(-c3ccccc3)cc2)NC(=O)[C@H](Cc2ccc(O)cc2)NC(=O)CSC[C@@H](C(=O)NCC(N)=O)NC1=O [Example 4] ({CH2CO}-Y[Bip][Bip][Sar]PDRVPVRLCG-NH2; thioether N-13),–
–,CC[C@H](C)[C@@H]1NC(=O)[C@@H](CCCNC(=N)NC[C@H](O)[C@@H](O)[C@@H](O)CO)NC(=O)[C@H](CC(=O)O)NC(=O)[C@@H]2CCCN2C(=O)CN(C)C(=O)[C@H](Cc2ccc(-c3ccc(NC(=O)c4nn(CC(=O)O)c5ccccc45)cc3)cc2)NC(=O)[C@H](Cc2ccc(-c3ccccc3)cc2)NC(=O)[C@H](CN2CCOCC2)NC(=O)CSC[C@@H](C(=O)NCC(N)=O)NC(=O)[C@H](CC(C)C)NC(=O)[C@H](Cc2cnc[nH]2)NC(=O)[C@H](C(C)C)NC(=O)[C@@H]2CCCN2C1=O [Example 599] ({CH2CO}-[Ala(morpholin-4-yl)][Bip][Bip(4'-NH)](Indazole3carbonyl(1-CH2COOH))[Sar]PD[X21]IPVHLCG-NH2; thioether N-13),< 50 nM
50 to 200 nM,CC[C@H](C)[C@@H]1NC(=O)[C@@H](CCCNC(=N)N)NC(=O)[C@H](CC(=O)O)NC(=O)[C@H](Cc2cnc[nH]2)NC(=O)CN(C)C(=O)[C@H](Cc2ccc(-c3ccc(C(=O)Nc4cccc(CC(=O)O)c4)cc3)cc2)NC(=O)[C@H](Cc2ccc(-c3ccc(C(=O)O)cc3)cc2)NC(=O)[C@H](CC2CCCCC2)NC(=O)CSC[C@@H](C(=O)NCC(N)=O)NC(=O)[C@H](CC(C)C)NC(=O)[C@H](Cc2cnc[nH]2)NC(=O)[C@H](C(C)C)NC(=O)[C@@H]2CCCN2C1=O [Example 630] ({CH2CO}-[Cha][Bip(4'-COOH)][X65][Sar]HD[dR]IPVHLCG-NH2; thioether N-13),–
–,CC[C@H](C)[C@@H]1NC(=O)[C@@H](CCCNC(=N)NCc2ccccc2)NC(=O)[C@H](CC(=O)O)NC(=O)[C@@H]2CCCN2C(=O)CN(C)C(=O)[C@H](Cc2ccc(-c3ccc(NC(=O)c4cn(CC(=O)O)c5ccccc45)cc3)cc2)NC(=O)[C@H](Cc2ccc(-c3ccccc3)cc2)NC(=O)[C@H](CN2CCOCC2)NC(=O)CSC[C@@H](C(=O)NCC(N)=O)NC(=O)[C@H](CC(C)C)NC(=O)[C@H](Cc2cnc[nH]2)NC(=O)[C@H](C(C)C)NC(=O)[C@@H]2CCCN2C1=O [Example 533] ({CH2CO}-[Ala(morpholin-4-yl)][Bip][Bip(4'-NH)](Indole3carbonyl(1-CH2COOH))[Sar]PD[dArg(ω-Bn)]IPVHLCG-NH2; thioether N-13),< 50 nM
50 to 200 nM,CC[C@H](C)[C@@H]1NC(=O)[C@@H](CCCNC(=N)N)NC(=O)[C@H](CC(=O)O)NC(=O)[C@H](Cc2ccc(O)cc2)NC(=O)CN(C)C(=O)[C@H](Cc2ccc(-c3ccc(NC(C)=O)cc3)cc2)NC(=O)[C@H](Cc2ccc(-c3ccccc3)cc2)NC(=O)[C@H](C(C)(C)C)NC(=O)CSC[C@@H](C(=O)NCC(N)=O)NC(=O)[C@H](CC(C)C)NC(=O)[C@H](Cc2ccccc2)NC(=O)[C@H](C(C)C)NC(=O)[C@@H]2CCCN2C1=O [Example 264] ({CH2CO}-[Tle][Bip][Bip(4'-NHAc)][Sar]YD[dR]IPVFLCG-NH2; thioether N-13),–
50 to 200 nM,CC(C)C[C@@H]1NC(=O)[C@H](Cc2ccc(O)cc2)NC(=O)[C@H](C(C)C)NC(=O)[C@H](Cc2cccnc2)NC(=O)[C@H](C(C)C)NC(=O)[C@H](CCCNC(=N)N)NC(=O)[C@H](CC(=O)O)NC(=O)[C@H](Cc2ccc(O)cc2)NC(=O)CN(C)C(=O)[C@H](Cc2ccc(-c3ccccc3)cc2)NC(=O)[C@H](Cc2ccc(-c3ccccc3)cc2)NC(=O)[C@H](C(C)(C)O)NC(=O)CSC[C@@H](C(=O)NCC(N)=O)NC1=O [Example 106] ({CH2CO}-[Val(3-OH)][Bip][Bip][Sar]YDRV[3Pal]VYLCG-NH2; thioether N-13),–
200 to 2000 nM,"CC(C)C[C@@H]1NC(=O)[C@H](Cc2ccc(O)cc2)NC(=O)[C@H](C(C)C)NC(=O)[C@@H]2CCCN2C(=O)[C@H](C(C)C)NC(=O)[C@H](CCCNC(=N)N)NC(=O)[C@H](C(C)(C)C(=O)O)NC(=O)[C@H](Cc2ccc(O)cc2)NC(=O)CN(C)C(=O)[C@H](Cc2ccc(-c3ccccc3)cc2)NC(=O)[C@H](Cc2ccc(-c3ccccc3)cc2)NC(=O)[C@H](CN2CCOCC2)NC(=O)CSC[C@@H](C(=O)NCC(N)=O)NC1=O [Example 100] ({CH2CO}-[Ala(morpholin-4-yl)][Bip][Bip][Sar]Y[Asp(3,3-Me2)]RVPVYLCG-NH2; thioether N-13)",–
–,CC(C)C[C@@H]1NC(=O)[C@H](Cc2cccs2)NC(=O)[C@H](C(C)C)NC(=O)[C@@H]2CCCN2C(=O)[C@H](C(C)C)NC(=O)[C@@H](CCCNC(=N)NCc2cccc(O)c2)NC(=O)[C@H](CC(=O)O)NC(=O)[C@H](Cc2ccccn2)NC(=O)CN(C)C(=O)[C@H](Cc2ccc(-c3ccc(NC(=O)c4nn(CC(=O)O)c5ccccc45)cc3)cc2)NC(=O)[C@H](Cc2ccc(-c3ccccc3)cc2)NC(=O)[C@H](CN2CCOCC2)NC(=O)CSC[C@@H](C(=O)NCC(N)=O)NC1=O [Example 626] ({CH2CO}-[Ala(morpholin-4-yl)][Bip][Bip(4'-NH)](Indazole3carbonyl(1-CH2COOH))[Sar][2Pal]D[dArg(ω-(3-HO-benzyl))]VPV[2Thi]LCG-NH2; thioether N-13),50 to 200 nM
–,CC(C)C[C@@H]1NC(=O)[C@H](CCCNC(=N)N)NC(=O)[C@H](C(C)C)NC(=O)[C@@H]2CCCN2C(=O)[C@H](C(C)C)NC(=O)[C@@H](CCCNC(=N)NCc2ccc(F)c(F)c2)NC(=O)[C@H](CC(=O)O)NC(=O)[C@@H]2CCCN2C(=O)CN(C)C(=O)[C@H](Cc2ccc(-c3ccc(NC(=O)c4nn(CC(=O)O)c5ccccc45)cc3)cc2)NC(=O)[C@H](Cc2ccc(-c3ccccc3)cc2)NC(=O)[C@H](CN2CCOCC2)NC(=O)CSC[C@@H](C(=O)NCC(N)=O)NC1=O [Example 469] ({CH2CO}-[Ala(morpholin-4-yl)][Bip][Bip(4'-NH)](Indazole3carbonyl(1-CH2COOH))[Sar]PD[X66]VPVRLCG-NH2; thioether N-13),< 50 nM
< 50 nM,CC[C@H](C)[C@@H]1NC(=O)[C@@H](CCCNC(=N)N)NC(=O)[C@H](CC(=O)O)NC(=O)[C@H](Cc2ccccn2)NC(=O)CN(C)C(=O)[C@H](Cc2ccc(-c3ccc(NC(C)=O)cc3)cc2)NC(=O)[C@H](Cc2ccc(-c3ccccc3)cc2)NC(=O)[C@H](CN2CCOCC2)NC(=O)CSC[C@@H](C(=O)NCC(N)=O)NC(=O)[C@H](CC(C)C)NC(=O)[C@H](Cc2cccs2)NC(=O)[C@H](C(C)C)NC(=O)[C@@H]2CCCN2C1=O [Example 604] ({CH2CO}-[Ala(morpholin-4-yl)][Bip][Bip(4'-NHAc)][Sar][2Pal]D[dR]IPV[2Thi]LCG-NH2; thioether N-13),–
200 to 2000 nM,CC(C)C[C@@H]1NC(=O)[C@H](Cc2csc3ccccc23)NC(=O)[C@H](C(C)C)NC(=O)[C@@H]2CCCN2C(=O)[C@H](C(C)C)NC(=O)[C@@H](CCCNC(=N)N)NC(=O)[C@H](CC(=O)O)NC(=O)[C@H](Cc2ccc(O)cc2)NC(=O)CN(C)C(=O)[C@H](Cc2ccc(-c3ccccc3)cc2)NC(=O)[C@H](Cc2ccc(-c3ccccc3)cc2)NC(=O)[C@H](CN2CCOCC2)NC(=O)CSC[C@@H](C(=O)NCC(N)=O)NC1=O [Example 158] ({CH2CO}-[Ala(morpholin-4-yl)][Bip][Bip][Sar]YD[dR]VPV[Bta]LCG-NH2; thioether N-13),–
